# Reference: patent US20250213603A1, “PHARMACEUTICAL COMPOSITION FOR TREATING CANCER” (SAGA UNIVERSITY, priority 2021, published 2025)
# “Also recorded” adds a separate entry of the source.
# What was measured:
# [1] = test system: BV173; experiment: Cell proliferation inhibitory action in the presence of folic acid (MTT assay); assay type: cell-based; conditions: BV173, 5 mM, FA 2 mM, 2 hours (FIG. 4)
# Protocol: (§1) The cell proliferation inhibitory action on leukemia cell lines in the presence of folic acid (FA) was evaluated as follows using the MTT assay.
# (§2) Leukemia cell lines (K562 and BV173) were used in this example. The FA-HP-β-CyD synthesized in Example 1 was used.
# (§3) 2×10^4 of each cell with 100 μL of medium was seeded per well to a flatbottom 96-well plate (Greiner Labortechnik, Hamburg, Germany), and incubation for 2 hours at 37° C. was carried out in combination with medium containing HP-β-CyD (5 mM) and FA-HP-β-CyD (5 mM) in the presence or absence of FA (2 mM). Evaluation was then carried out using a Cell Counting Kit-8 (Dojindo, Japan), which is a modified dimethyl-thiazole-diphenyl-tetrazolium (MTT) assay.
# (§4) The evaluation here was carried out as follows, respectively, for the “CT” and “only FA” in FIG. 4. Thus, 2×10^4 of each cell with 100 μL of medium was seeded per well to a flatbottom 96-well plate and incubation was carried out for 2 hours at 37° C.; this was evaluated as “CT”. Incubation for 2 hours at 37° C. while exposed to only FA was evaluated as “only FA”.
# (§5) Significant difference was established as follows. A two sample t-test was performed on the agents under investigation (FA-HP-β-CyD with FA, FA-HP-β-CyD without FA). A significant difference is established when p<0.05 in the comparison of the two samples.
# [2] = test system: K562; experiment: as above; assay type: cell-based; conditions: K562, 5 mM, FA 2 mM, 2 hours (FIG. 4)
# Protocol: as §1, §2, §3, §4, §5
# [3] = test system: leukemia cell lines (K562, BV173, Ba/F3 p190, Ba/F3 p210, MYL-R, K562-IMR, and KBM5-STI); experiment: Comparison of cytotoxic activity across leukemia cell lines (MTT assay); assay type: cell-based; conditions: Example 3
# Protocol: The proliferation inhibitory action in leukemia cell lines was evaluated using a modified dimethyl-thiazole-diphenyl-tetrazolium (MTT) assay as follows.
# The hepatocyte line and leukemia cell lines (K562, BV173, Ba/F3 p190, Ba/F3 p210, MYL-R, K562-IMR, and KBM5-STI) were used in this example. The FA-HP-β-CyD synthesized in Example 1 was used.
# The cell viability was evaluated using the trypan blue dye exclusion method. Cell proliferation was evaluated using a Cell Counting Kit-8 (Dojindo, Japan), which is an MTT assay. 2×10^4 of each cell was seeded with 100 μL RPMI1640 medium (Sigma-Aldrich, USA) per well to a flatbottom 96-well plate (Greiner Labortechnik, Hamburg, Germany), and incubation for 72 hours was carried out with exposure to HP-β-CyD and FA-HP-β-CyD at different concentrations (0 mM (control: CT), 0.05 mM, 0.1 mM, 0.25 mM, 0.5 mM, and 1 mM).
# According to Table 1, IC50 for FA-HP-β-CyD in the leukemia cell lines (K562, BV173, Ba/F3 p190, Ba/F3 p210, MYL-R, K562-IMR, and KBM5-STI) is shown to be about ⅕ to about 1/20 of that for HP-β-CyD. […] FA-HP-β-CyD is thus shown to have a stronger cytotoxic activity than HP-β-CyD.
# [4] = test system: BV173; experiment: Induction of autophagosome formation (Cyto-ID Autophagy Detection Kit); assay type: cell-based; conditions: BV173, 1 mM or 5 mM, 2 hours (FIG. 7)
# Protocol: (§6) The induction of autophagosome formation by FA-HP-β-CyD was evaluated as follows.
# as §2
# (§7) The cells were cultured at a cell density of 4×10^5 cells/well on a 6-well plate and were treated for 2 hours with 1 mM or 5 mM HP-β-CyD or FA-HP-β-CyD, and the cells were incubated. This was followed by use of a Cyto-ID (registered trademark) Autophagy Detection Kit (Enzo Life Sciences, USA) and the use of an Axio Imager.M2 fluorescence microscope+an ApoTome.2 (Zeiss) for cell observation.
# [5] = test system: K562; experiment: as above; assay type: cell-based; conditions: K562, 1 mM or 5 mM, 2 hours (FIG. 7)
# Protocol: as §6, §2, §7
# [6] = test system: EGFP+Ba/F3 BCR-ABLWT cells; experiment: Survival extension in a BCR-ABL leukemia mouse model; assay type: in vivo, nude mice; conditions: 15 mM (249 mg/kg) FA-HP-β-CyD vs 150 mM (2086.5 mg/kg) HP-β-CyD, intraperitoneally twice a day for 20 days (FIG. 10)
# Protocol: The effect due to FA-HP-β-CyD on the extension of survival in a BCR-ABL leukemia mouse model was evaluated as follows.
# (§8) The FA-HP-β-CyD synthesized in Example 1 was used in this example.
# EGFP+Ba/F3 BCR-ABLWT cells (1×10^6 cells) were transplanted into 6-week-old nude mice. Three days after transplantation, 200 μL vehicle (n=10), 150 mM (2086.5 mg/kg) HP-β-CyD (n=10), 15 mM (249 mg/kg) FA-HP-β-CyD (n=10), or […] (200 mg/kg) imatinib (n=10) was injected intraperitoneally twice a day for 20 days. The survival time was monitored daily. The survival data were analyzed using a log-rank nonparametric test and are reported as Kaplan-Meier survival curves.
# (§9) Significant difference was determined as follows. That is, the data were analyzed using a two-sided Student's t-test without a comparison table. A value of P<0.05 was considered to indicate a significant difference.
# [7] = test system: BV173 cells (leukemia cells); experiment: Ventricular invasion mouse model (leukemic invasion of the central nervous system); assay type: in vivo, BRJ mice
# Protocol: Here, the effect of HP-β-CyD and FA-HP-β-CyD on leukemic central nervous system invasion was test by constructing a mouse model.
# BRJ mice (female) were anesthetized (intraperitoneal administration (IP) of 100 μL of a triple anesthetic of medetomidine hydrochloride (0.75 mg/kg), mitazolam (4 mg/kg), and butorphanol tartrate (5 mg/kg)), and intrathecal transplantation was carried out, through the right coronal suture at a point 1 mm to the right of the center line defined by the sagittal suture, with a polyethylene stop tube-equipped microsyringe designed to inject BV173 cells (leukemia cells) precisely to a depth of 3 mm using a Hamilton syringe LT type needle tip style pst-3 and 25 gauge.
# as §8
# The doses were set at 30 mg/kg for HP-β-CyD and 3 mg/kg for FA-HP-β-CyD by referring to the dose of HP-β-CyD for a mouse model of the hereditary lipid storage disease Niemann-Pick disease type C (NPC) (Int. J. Mol. Sci. 2021, 22, 452. https://doi.org/10.3390/ijms22010452).
# as §9
substance,measurement,setting,value
folic acid-appended hydroxypropyl-β-cyclodextrin [FA-HP-β-CyD],antitumor activity in the presence of FA compared to without FA,[1],significantly reduced
same,antitumor activity in the presence of FA compared to without FA,[2],significantly reduced
same,amount giving the equivalent anti-leukemia action relative to un-appended HP-β-CyD,[3],approximately one-tenth the amount
same,autophagosome membrane protein LC3B,[4],increase in a concentration dependent manner
same,autophagosome membrane protein LC3B,[5],increase in a concentration dependent manner
same,survival time extension,[6],same survival time extension at one-tenth the amount of HP-β-CyD; also recorded: significant extension of the survival time
same,survival in two-time administration model compared with one-time administration model,"[7]; FIG. 14 compared with FIG. 13, HP-β-CyD 30 mg/kg, FA-HP-β-CyD 3 mg/kg",survival was extended by one day
same,survival in comparison to the vehicle group and HP-β-CyD group,"[7]; administered two times, first and second week after transplantation, FA-HP-β-CyD 3 mg/kg (FIG. 14)",extension of survival was confirmed
same,P versus the vehicle group (survival),"[7]; administered two times, first and second week, HP-β-CyD 30 mg/kg, FA-HP-β-CyD 3 mg/kg (FIG. 14)",0.0472
same,survival in comparison to the vehicle group and HP-β-CyD group,"[7]; single administration in the second week after ventricular transplantation, FA-HP-β-CyD 3 mg/kg (FIG. 13)",extension of survival was confirmed
same,P versus the vehicle group (survival),"[7]; single administration in the second week, HP-β-CyD 30 mg/kg, FA-HP-β-CyD 3 mg/kg (FIG. 13)",0.0111
